Laboratory results reported in ChEMBL document CHEMBL1201862, “PubChem BioAssay data set” (2004).
Active and inactive are the calls of the source.

Legend:
[1] = biological target: T1, Cytochrome P450 1A2 (Homo sapiens, UniProt P05177);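 further: PubChem cytochrome P450 panel assay, CYP1A2 panel member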
T1 sequence (P05177 whole entry): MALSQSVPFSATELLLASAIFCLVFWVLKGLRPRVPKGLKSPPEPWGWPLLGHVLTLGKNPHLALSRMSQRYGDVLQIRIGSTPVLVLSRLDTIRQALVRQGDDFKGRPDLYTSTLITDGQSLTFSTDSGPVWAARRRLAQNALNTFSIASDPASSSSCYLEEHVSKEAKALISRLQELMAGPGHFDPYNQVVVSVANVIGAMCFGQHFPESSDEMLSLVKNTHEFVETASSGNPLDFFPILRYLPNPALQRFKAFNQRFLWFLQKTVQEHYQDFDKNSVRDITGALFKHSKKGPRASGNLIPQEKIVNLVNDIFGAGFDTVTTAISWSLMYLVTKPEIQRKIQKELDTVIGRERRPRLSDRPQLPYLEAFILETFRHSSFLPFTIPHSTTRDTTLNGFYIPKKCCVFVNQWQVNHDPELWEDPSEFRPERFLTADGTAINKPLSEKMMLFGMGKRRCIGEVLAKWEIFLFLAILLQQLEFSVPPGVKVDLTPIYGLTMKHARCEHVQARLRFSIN

[2] = biological target: Cytochrome P450 2C19 (Homo sapiens, UniProt P33261); assay: Cytochrome panel assay with activity outcomes. Panel member name: p450-cyp2c19 Compounds with AC50 equal or less than 10 uM are considered active; type: functional
[3] = biological target: Cytochrome P450 3A4 (Homo sapiens, UniProt P08684);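 further: CYP3A4 tested as one member of a cytochrome P450 panel screen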
[4] = biological target: Cytochrome P450 2C9 (Homo sapiens, UniProt P11712)
[5] = biological target: T2, RNA-binding protein pos-1 (Caenorhabditis elegans, UniProt G5EF15); assay: disruptors of C. elegans POS-1 RNA interaction – biochemical, fluorescence polarization, dose response (AID 1964);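 further: purified POS-1 fused to maltose binding protein made in E. coli; potency of compounds blocking POS-1 binding to fluorescent RNA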
T2 sequence (G5EF15 whole entry): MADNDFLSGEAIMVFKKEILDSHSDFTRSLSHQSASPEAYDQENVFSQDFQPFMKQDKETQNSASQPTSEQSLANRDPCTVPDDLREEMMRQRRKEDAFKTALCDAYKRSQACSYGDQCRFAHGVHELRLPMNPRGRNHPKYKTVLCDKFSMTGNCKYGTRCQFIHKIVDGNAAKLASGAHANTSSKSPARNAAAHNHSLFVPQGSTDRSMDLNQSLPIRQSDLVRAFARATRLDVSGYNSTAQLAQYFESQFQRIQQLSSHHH

[6] = biological target: T3, Zinc finger protein mex-5 (Caenorhabditis elegans, UniProt Q9XUB2); assay: potency of MEX-5 RNA-binding blockers – biochemical, C. elegans, fluorescence polarization, dose response (AID 1960)
T3 sequence (Q9XUB2 whole entry): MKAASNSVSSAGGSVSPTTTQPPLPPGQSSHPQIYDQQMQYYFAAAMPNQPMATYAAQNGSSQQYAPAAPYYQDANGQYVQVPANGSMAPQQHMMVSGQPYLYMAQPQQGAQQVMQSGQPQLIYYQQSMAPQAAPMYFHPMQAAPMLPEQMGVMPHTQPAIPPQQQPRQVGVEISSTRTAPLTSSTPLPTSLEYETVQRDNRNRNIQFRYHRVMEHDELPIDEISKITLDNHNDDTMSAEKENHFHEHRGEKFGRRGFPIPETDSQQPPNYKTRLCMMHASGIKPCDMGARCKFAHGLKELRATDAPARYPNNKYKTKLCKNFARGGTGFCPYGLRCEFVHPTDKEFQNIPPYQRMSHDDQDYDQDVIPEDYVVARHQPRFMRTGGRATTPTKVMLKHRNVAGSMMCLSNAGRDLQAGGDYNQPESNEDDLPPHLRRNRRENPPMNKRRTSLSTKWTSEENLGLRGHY

[7] = biological target: T4, Heat shock factor protein 1 (Mus musculus, UniProt P38532); assay: enhancement of HSF1-driven luciferase signal – cell-based, NIH3T3, luminescence, dose retest, confirmation (AID 435004); type: functional;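 further: stress induced by proteasome inhibitor MG132 added 30 min after compound; luciferase reporter driven by HSF1 response element in NIH3T3 cells; actives raise luminescence as potentiators of the MG132 stress response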
T4 sequence (P38532 whole entry): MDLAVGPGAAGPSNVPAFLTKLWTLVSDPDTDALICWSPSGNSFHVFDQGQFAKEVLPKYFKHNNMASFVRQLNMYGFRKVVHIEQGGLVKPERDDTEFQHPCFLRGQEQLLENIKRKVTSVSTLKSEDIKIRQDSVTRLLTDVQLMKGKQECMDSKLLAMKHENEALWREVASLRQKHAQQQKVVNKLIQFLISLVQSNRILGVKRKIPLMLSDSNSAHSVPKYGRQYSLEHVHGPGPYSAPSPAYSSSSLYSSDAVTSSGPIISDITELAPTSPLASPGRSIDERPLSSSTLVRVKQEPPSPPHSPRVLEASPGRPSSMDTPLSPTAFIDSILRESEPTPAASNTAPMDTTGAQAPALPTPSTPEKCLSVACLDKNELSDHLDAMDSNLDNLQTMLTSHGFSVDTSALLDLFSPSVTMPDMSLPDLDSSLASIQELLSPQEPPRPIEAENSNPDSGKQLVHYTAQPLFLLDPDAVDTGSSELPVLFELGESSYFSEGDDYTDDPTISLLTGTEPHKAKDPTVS

[8] = tested on: H4; assay: Luminescence Cell-Based Dose Response HTS to Identify Activators of 5'UTR Stem-Loop Driven Prion Protein mRNA Translation in H4 Neuroglioblastoma Cells. [Related pubchem assays: 1829 (Project Summary), 1814 (Primary HTS)]; type: functional; conditions: Homo sapiens

Chain of Cytochrome P450 2C19 (P33261 whole entry): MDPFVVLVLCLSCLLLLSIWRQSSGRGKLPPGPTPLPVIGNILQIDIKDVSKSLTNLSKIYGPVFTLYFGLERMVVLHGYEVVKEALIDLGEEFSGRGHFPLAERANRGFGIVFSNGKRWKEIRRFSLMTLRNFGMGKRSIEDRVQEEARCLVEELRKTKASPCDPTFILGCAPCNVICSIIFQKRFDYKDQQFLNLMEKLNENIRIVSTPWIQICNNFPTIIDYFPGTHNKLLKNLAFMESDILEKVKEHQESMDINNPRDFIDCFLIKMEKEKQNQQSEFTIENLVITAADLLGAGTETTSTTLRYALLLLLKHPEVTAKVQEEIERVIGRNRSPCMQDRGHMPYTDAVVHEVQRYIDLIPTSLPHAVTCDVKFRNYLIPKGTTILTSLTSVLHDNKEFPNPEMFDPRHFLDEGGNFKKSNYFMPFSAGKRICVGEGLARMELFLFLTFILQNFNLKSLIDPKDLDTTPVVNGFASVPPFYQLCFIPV
Chain of Cytochrome P450 3A4 (P08684 whole entry): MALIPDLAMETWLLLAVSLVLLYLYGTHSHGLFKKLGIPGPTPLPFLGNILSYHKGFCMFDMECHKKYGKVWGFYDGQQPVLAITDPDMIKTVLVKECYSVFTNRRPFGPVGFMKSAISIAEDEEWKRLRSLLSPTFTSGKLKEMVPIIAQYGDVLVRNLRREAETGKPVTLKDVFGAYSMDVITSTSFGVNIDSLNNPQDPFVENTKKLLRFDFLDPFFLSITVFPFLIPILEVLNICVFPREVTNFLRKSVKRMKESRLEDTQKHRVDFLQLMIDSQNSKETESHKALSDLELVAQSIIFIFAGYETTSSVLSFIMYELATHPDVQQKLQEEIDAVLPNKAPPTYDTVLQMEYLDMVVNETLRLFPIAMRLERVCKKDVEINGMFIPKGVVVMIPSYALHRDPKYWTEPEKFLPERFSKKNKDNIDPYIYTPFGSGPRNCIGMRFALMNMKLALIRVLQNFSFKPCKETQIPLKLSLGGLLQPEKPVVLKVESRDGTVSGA
Chain of Cytochrome P450 2C9 (P11712 whole entry, the tested form may be a part): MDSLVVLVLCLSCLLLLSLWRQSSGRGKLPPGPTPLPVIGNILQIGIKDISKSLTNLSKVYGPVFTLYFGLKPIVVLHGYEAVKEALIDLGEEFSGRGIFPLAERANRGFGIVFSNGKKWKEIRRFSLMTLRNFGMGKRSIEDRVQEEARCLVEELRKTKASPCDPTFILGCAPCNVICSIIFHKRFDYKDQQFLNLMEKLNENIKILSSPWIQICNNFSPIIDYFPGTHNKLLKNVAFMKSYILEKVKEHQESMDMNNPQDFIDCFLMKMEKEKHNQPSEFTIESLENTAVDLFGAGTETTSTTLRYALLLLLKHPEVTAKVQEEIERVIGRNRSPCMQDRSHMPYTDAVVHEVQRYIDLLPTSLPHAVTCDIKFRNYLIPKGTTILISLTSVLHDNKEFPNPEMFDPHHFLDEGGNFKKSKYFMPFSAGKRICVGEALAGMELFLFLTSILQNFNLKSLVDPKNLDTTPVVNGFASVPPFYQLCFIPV

O=C(NC1CCCCC1)C(c1cccs1)N(C(=O)C(F)(F)F)c1ccccc1 (stereo unspecified)
AC50 [1]: 2.51 µM (inconclusive)

Clc1ccccc1-c1cc(NCCN2CCOCC2)ncn1
AC50 ([2]; read-out: AC50): 25.1 µM (inconclusive)
AC50 [1]: 31.6 µM (inconclusive)

COCCn1c(=O)c(C)nc2cnc(OC)nc21
AC50 [3]: 31.6 µM (inconclusive)

COc1cc(-c2ccc(/N=N\c3ccc4c(S(=O)(=O)O)cc(S(=O)(=O)O)c(N)c4c3O)c(OC)c2)ccc1/N=N\c1ccc2c(S(=O)(=O)O)cc(S(=O)(=O)O)c(N)c2c1O
AC50 [3]: 10 µM (inconclusive)
AC50 [4]: 10 µM (inconclusive)

O=c1c(-c2ccc(F)cc2)nc2cnc(Oc3cccc(Cl)c3)nc2n1C[C@H]1CCCO1
AC50 ([2]; read-out: AC50): 39.8 µM (inconclusive)
AC50 [3]: 12.6 µM (inconclusive)

Cc1cc(NC(=O)c2c([N+](=O)[O-])cnn2C)no1
AC50 [3]: 25.1 µM (inconclusive)
AC50 [4]: 39.8 µM (inconclusive)

CC1(OC(=O)c2cnc3ccccc3n2)C(=O)C=C2C=C(c3ccc(C#N)cc3)OC=C2C1=O (stereo unspecified)
EC50 [5]: 39.8 µM (active)
EC50 [6]: 44.9 µM (active)

COC(=O)CCCC1=CC2=CC(=O)C(C)(OC(=O)c3ccc(Cl)nc3)C(=O)C2=CO1 (stereo unspecified)
EC50 [5]: > 150 µM (not active)
EC50 [6]: 18.8 µM (active)

CC(C)OC(=O)c1ccc(COc2ccc3ccc(=O)oc3c2)o1
EC50 [7]: 66.6 µM (active)

Cc1ccc(S(=O)(=O)C(C#N)c2nc3ccccc3nc2N2CC(C)OC(C)C2)cc1C (stereo unspecified)
EC50 [5]: 4.67 µM (inconclusive)
EC50 [6]: 26.1 µM (inconclusive)

COc1ccc(-n2c(=O)c3c4c(sc3n(CC(N)=O)c2=O)CCCCC4)cc1
EC50 [7]: > 260 µM (inactive)

O=c1[nH]c(=O)n([C@H]2C[C@H](O)[C@H](CO)O2)cc1/C=C\Br
AC50 [1]: 31.6 µM (inconclusive)
AC50 [3]: 20 µM (inconclusive)

CC(C)(C)OC(=O)N1CSC[C@H]1C(=O)NC[C@H](CC(=O)O)c1ccc(Cl)cc1
EC50 [7]: > 260 µM (inactive)

COc1cccc(N/C(SCc2cccc([N+](=O)[O-])c2)=C(/C#N)C(=O)NCc2cccs2)c1
EC50 [7]: > 260 µM (inactive)

Cc1cccc(C2C3=C(CCCC3=O)N=C3c4ccccc4C(=O)C32)c1 (stereo unspecified)
EC50 [7]: 26.1 µM (active)

COc1ccccc1C(=O)CSc1nnc(-c2ccco2)o1
EC50 [7]: 65 µM (active)

O=C(NC1CC1)c1cccc(Nc2ccc(-c3ccc4c(c3)OCCO4)nn2)c1
EC50 [8]: 52.2 µM (active)

CN(C)C(=O)c1ccc(-c2cc(NCc3cccnc3)ncn2)cc1
AC50 [1]: 20 µM (inconclusive)

Cc1ccc(-c2nc3ccccc3[nH]2)cc1NC(=O)c1ccc2c(c1)OCO2
EC50 [7]: 70.2 µM (active)

COCC1C2CC[C@H]3C(OCc4ccc(OC)cc4)OC[C@]4(C)[C@H]3C2=C(CN4C(=O)OC(C)(C)C)[C@H](C)C1COC (stereo partly specified)
AC50 [1]: 15.8 µM (inconclusive)
AC50 [4]: 15.8 µM (inconclusive)

O=C1NC(=O)N(CCc2ccccc2)C(=O)/C1=C/NNC(=O)c1ccccc1
EC50 [5]: 40.2 µM (active)
EC50 [6]: > 150 µM (not active)

Cc1ccc(C)c(NC2CCCCC2NS(=O)(=O)c2ccccc2)c1 (stereo unspecified)
EC50 [7]: > 260 µM (inactive)

CC1(OC(=O)c2ccco2)C(=O)C=C2C=C(c3ccsc3)OC=C2C1=O (stereo unspecified)
EC50 [5]: > 300 µM (not active)
EC50 [6]: 23.1 µM (active)

CCCNC(=O)NC(=O)CSc1cccc(C(F)(F)F)c1
EC50 [7]: > 260 µM (inactive)

CCN(CC)C(=O)CNc1ccc(C(F)(F)F)cc1[N+](=O)[O-]
EC50 [5]: 40 µM (inconclusive)
EC50 [6]: > 300 µM (not active)

CCOc1ccc(-c2nn(-c3ccccc3)cc2/C=C(\C#N)S(=O)(=O)c2ccccc2)cc1C
AC50 [3]: 11.2 µM (inconclusive)
AC50 [4]: 10 µM (inconclusive)

O=c1nc(SCc2cccc([N+](=O)[O-])c2)[nH]c2nc[nH]c12
AC50 [2]: inconclusive
AC50 [3]: 3.16 µM (inconclusive)

CCC(C)(C)NC(=O)c1ccc2c(c1)N(CC(=O)OC)C(=O)C(C)(C)O2
AC50 ([2]; read-out: AC50): 20 µM (inconclusive)
AC50 [1]: 0.158 µM (inconclusive)

NC(=NO)C1COc2ccccc2O1 (stereo unspecified)
AC50 ([2]; read-out: AC50): 11.2 µM (inconclusive)
AC50 [1]: 14.1 µM (inconclusive)
AC50 [4]: 2.51 µM (inconclusive)

CCCNS(=O)(=O)c1ccc(CCC(=O)NCc2ccc3c(c2)OCO3)cc1
EC50 [5]: > 300 µM (not active)
EC50 [6]: > 300 µM (not active)

CC(C)(O)C#Cc1ccc(C(=O)NCc2cccs2)s1
AC50 ([2]; read-out: AC50): 17.8 µM (inconclusive)
AC50 [3]: 28.2 µM (inconclusive)

CCc1nc(O)c(C#N)c2c1CSC(C)(C)C2
EC50 [7]: > 260 µM (inactive)

COc1cccc(-c2nc(C[S+]([O-])CC(=O)N3CCC4(CC3)OCCO4)c(C)o2)c1 (stereo unspecified)
AC50 ([2]; read-out: AC50): 14.1 µM (inconclusive)
AC50 [1]: 25.1 µM (inconclusive)
AC50 [3]: 12.6 µM (inconclusive)
AC50 [4]: 31.6 µM (inconclusive)

Cc1ccc(/C=C2\C(=O)NC(=S)N(c3ccc(F)cc3)C2=O)o1
EC50 [5]: > 300 µM (not active)
EC50 [6]: 43.9 µM (active)

COc1ccc(-n2cnnc2SCC(=O)N(C)C2CCS(=O)(=O)C2)cc1 (stereo unspecified)
EC50 [7]: > 260 µM (inactive)

C/C=C(/C)C(=O)Nc1cccc(C2=NOC3(C2)C[C@@H](C(N)=O)N(C(=O)CC)C3)c1 (stereo partly specified)
EC50 [7]: > 260 µM (inactive)

Nc1ncnc2c1CCC2
EC50 [7]: > 260 µM (inactive)

COc1cccc(N2CCN(S(=O)(=O)c3ccc(-c4coc(C)n4)cc3)CC2)c1
EC50 [7]: > 260 µM (inactive)

O=C(Nc1cccc(C(F)(F)F)c1)c1n[nH]c(Cn2cncn2)n1
AC50 ([2]; read-out: AC50): 28.2 µM (inconclusive)
AC50 [3]: 25.1 µM (inconclusive)

COc1ccccc1N1CCN(c2nc(-c3ccccc3)cc(C(F)(F)F)n2)CC1
AC50 [1]: 0.631 µM (inconclusive)

CCN1C(=O)/C(=C\c2c[nH]c3ccccc23)S/C1=N\c1ccc(C)cc1
AC50 [1]: 6.31 µM (inconclusive)

CCN(CC)c1ccc(/C=c2/sc3nnc(-c4ccccc4C)n3c2=O)cc1
EC50 [5]: > 300 µM (not active)
EC50 [6]: > 300 µM (inconclusive)

C[C@@H]1c2ccccc2Cn2cc3c(c21)C(=O)c1cccc(O[P@@](=O)(O)OCc2ccccc2)c1C3=O
AC50 [1]: 3.16 µM (inconclusive)

CC(C)(S)[C@H](N)C(=O)O
AC50 [1]: 6.31 µM (inconclusive)

ClCC1CS/C(=N\C23CC4CC(CC(C4)C2)C3)O1 (stereo unspecified)
EC50 [7]: > 260 µM (inactive)

Cn1c(CN2CCN(c3ccc(Cl)cc3)CC2)nc2ccccc21
EC50 [7]: > 260 µM (inactive)

O=C(O[C@@H]1Cc2c(O)cc(O)cc2O[C@@H]1c1cc(O)c(O)c(O)c1)c1cc(O)c(O)c(O)c1 [EPIGALOCATECHIN GALLATE]
EC50 [5]: 5.89 µM (inconclusive)
EC50 [6]: 0.727 µM (active)

Clc1cncc(N2CCNCC2)n1 [MK-212]
AC50 ([2]; read-out: AC50): 6.31 µM (inconclusive)
AC50 [3]: 15.8 µM (inconclusive)

COc1cc(OC)c(C(=O)CCCCN2CCC3(CC2)NC(=O)NC3=O)cc1NS(=O)(=O)c1ccc(C(F)(F)F)cc1 [RS-102,221]
AC50 [3]: 7.94 µM (inconclusive)
